According to ChEMBL document CHEMBL5584304, “Unlocking the Potential of Glutinol: Structural Diversification and Antifungal Activity against Phytopathogenic Fusarium Strains” (2024):

Assays:
Type in all cases: functional
Conditions in all cases: time 24-48 hrs
Fusarium graminearum = assay: Antifungal activity against Fusarium graminearum measured after 24 to 48 hrs by turbidimetry
Fusarium tucumaniae = assay: Antifungal activity against Fusarium tucumaniae measured after 24 to 48 hrs by turbidimetry
Fusarium solani = assay: Antifungal activity against Fusarium solani measured after 24 to 48 hrs by turbidimetry

Q: For CC1(C)CC[C@]2(C)CC[C@]3(C)[C@H]4CC=C5[C@@H](Cc6c([nH]c7ccccc67)C5(C)C)[C@]4(C)CC[C@@]3(C)[C@@H]2C1, which MIC (Fusarium graminearum) is on record?
A: The MIC was > 50 µg/mL.

Q: What about the MIC (Fusarium tucumaniae) of the same molecule?
A: Its MIC is > 50 µg/mL.

Q: What about the MIC (Fusarium solani) of the same molecule?
A: The MIC was > 50 µg/mL.

Q: Which MIC (Fusarium graminearum) does the source give for C=C(C)C1=CC[C@H]2[C@@](C)(CC[C@@]3(C)[C@@H]4CC(C)(C)CC[C@]4(C)CC[C@]23C)[C@@H]1CCC#N here?
A: Its MIC is > 50 µg/mL.

Q: What about the MIC (Fusarium tucumaniae) of the same molecule?
A: The MIC was 59.2 µM.

Q: And the MIC (Fusarium solani)?
A: Its MIC is 59.2 µM.

Q: CC1(C)CC[C@]2(C)CC[C@]3(C)[C@H]4CC=C5[C@@H](CC(C=O)=C(O)C5(C)C)[C@]4(C)CC[C@@]3(C)[C@@H]2C1 was tested. Which MIC (Fusarium graminearum) did it give?
A: The MIC was 110 µM.

Q: What about the MIC (Fusarium tucumaniae) of the same molecule?
A: Its MIC is 110 µM.

Q: And the MIC (Fusarium solani)?
A: Its MIC is 55.2 µM.

Q: CC1(C)CC[C@]2(C)CC[C@]3(C)c4ccc5c(c4CC[C@@]3(C)[C@@H]2C1)C=CC(=O)C5(C)C was tested. Which MIC (Fusarium graminearum) did it give?
A: Its MIC is 123 µM.

Q: What about the MIC (Fusarium tucumaniae) of the same molecule?
A: Its MIC is 123 µM.

Q: And the MIC (Fusarium solani)?
A: The MIC was > 50 µg/mL.

Q: Which MIC (Fusarium graminearum) does the source give for CC1(C)CC[C@]2(C)CC[C@]3(C)[C@H]4CC=C5[C@@H](Cc6cnn(-c7nc8ccccc8s7)c6C5(C)C)[C@]4(C)CC[C@@]3(C)[C@@H]2C1 here?
A: Its MIC is 85.9 µM.

Q: And the MIC (Fusarium tucumaniae)?
A: The MIC was 85.9 µM.

Q: What about the MIC (Fusarium solani) of the same molecule?
A: The MIC was 43 µM.

Q: Which MIC (Fusarium graminearum) does the source give for CC1(C)CC[C@]2(C)CC[C@]3(C)[C@@H](CC=O)[C@](C)([C@@H]4CC[C@H](O)C(C)(C)C4=O)CC[C@@]3(C)[C@@H]2C1 here?
A: The MIC was 54.5 µM.

Q: What about the MIC (Fusarium tucumaniae) of the same molecule?
A: Its MIC is 109 µM.

Q: What about the MIC (Fusarium solani) of the same molecule?
A: The MIC was 109 µM.

Q: How did the MIC (Fusarium graminearum) turn out when CC1(C)CC[C@]2(C)CC[C@]3(C)[C@H]4CC=C5[C@@H](Cc6sc(N)nc6C5(C)C)[C@]4(C)CC[C@@]3(C)[C@@H]2C1 was run?
A: Its MIC is > 50 µg/mL.

Q: What about the MIC (Fusarium tucumaniae) of the same molecule?
A: Its MIC is 107 µM.

Q: What about the MIC (Fusarium solani) of the same molecule?
A: Its MIC is > 50 µg/mL.

Q: Which results are given for CC1(C)CC[C@]2(C)CC[C@]3(C)[C@H]4CC=C5C(=CCC(=O)C5(C)C)[C@]4(C)CC[C@@]3(C)[C@@H]2C1?
A: MIC (Fusarium graminearum): 118 µM; MIC (Fusarium tucumaniae): > 50 µg/mL; MIC (Fusarium solani): > 50 µg/mL

Q: For CC1(C)CC[C@]2(C)CC[C@]3(C)[C@H]4C=CC5=C(C=C(Br)C(=O)C5(C)C)[C@]4(C)CC[C@@]3(C)[C@@H]2C1, which MIC (Fusarium graminearum) is on record?
A: The MIC was > 50 µg/mL.

Q: What about the MIC (Fusarium tucumaniae) of the same molecule?
A: Its MIC is 100 µM.

Q: What about the MIC (Fusarium solani) of the same molecule?
A: The MIC was > 50 µg/mL.

Q: Which results are given for CC1(C)CC[C@]2(C)CC[C@]3(C)[C@H]4CC=C5[C@@H](Cc6cnoc6C5(C)C)[C@]4(C)CC[C@@]3(C)[C@@H]2C1?
A: MIC (Fusarium graminearum): > 50 µg/mL; MIC (Fusarium tucumaniae): 55.8 µM; MIC (Fusarium solani): 55.8 µM

Q: How did the MIC (Fusarium graminearum) turn out when CC1(C)CC[C@]2(C)CC[C@]3(C)[C@H]4CC=C5C(C)(C)C(=O)CC[C@@]5(O)[C@]4(C)CC[C@@]3(C)[C@@H]2C1 was run?
A: The MIC was > 50 µg/mL.

Q: What about the MIC (Fusarium tucumaniae) of the same molecule?
A: The MIC was 113 µM.

Q: What about the MIC (Fusarium solani) of the same molecule?
A: Its MIC is 56.7 µM.

Q: How did the MIC (Fusarium graminearum) turn out when CC1(C)CC[C@]2(C)CC[C@]3(C)[C@H]4CC=C5[C@@H](CC(Br)(Br)C(=O)C5(C)C)[C@]4(C)CC[C@@]3(C)[C@@H]2C1 was run?
A: The MIC was > 50 µg/mL.

Q: And the MIC (Fusarium tucumaniae)?
A: Its MIC is 85.9 µM.

Q: What about the MIC (Fusarium solani) of the same molecule?
A: The MIC was > 50 µg/mL.

Q: With CC1(C)CC[C@]2(C)CC[C@]3(C)c4ccc5c(c4CC[C@@]3(C)[C@@H]2C1)C=C(Br)C(=O)C5(C)C as the molecule, how does the MIC (Fusarium graminearum) read?
A: The MIC was 51.7 µM.

Q: What about the MIC (Fusarium tucumaniae) of the same molecule?
A: Its MIC is 51.7 µM.

Q: And the MIC (Fusarium solani)?
A: Its MIC is > 50 µg/mL.

Q: Which MIC (Fusarium graminearum) does the source give for CC1(C)CC[C@]2(C)CC[C@]3(C)[C@H]4CC=C5C(=CC(=O)C(=O)C5(C)C)[C@]4(C)CC[C@@]3(C)[C@@H]2C1 here?
A: Its MIC is > 50 µg/mL.

Q: And the MIC (Fusarium tucumaniae)?
A: The MIC was > 50 µg/mL.

Q: What about the MIC (Fusarium solani) of the same molecule?
A: The MIC was 114 µM.

Q: Which results are given for CC1(C)CC[C@]2(C)CC[C@]3(C)[C@H]4C=CC5=C(C=CC(=O)C5(C)C)[C@]4(C)CC[C@@]3(C)[C@@H]2C1?
A: MIC (Fusarium graminearum): > 50 µg/mL; MIC (Fusarium tucumaniae): 119 µM; MIC (Fusarium solani): > 50 µg/mL

Q: How did the MIC (Fusarium graminearum) turn out when CC1(C)CC[C@]2(C)CC[C@]3(C)[C@H]4CC=C5C(=Cc6n[nH]c(=S)nc6C5(C)C)[C@]4(C)CC[C@@]3(C)[C@@H]2C1 was run?
A: Its MIC is 50.8 µM.

Q: What about the MIC (Fusarium tucumaniae) of the same molecule?
A: The MIC was 102 µM.

Q: What about the MIC (Fusarium solani) of the same molecule?
A: Its MIC is 25.4 µM.

Q: Which MIC (Fusarium graminearum) does the source give for CC1(C)CC[C@]2(C)CC[C@]3(C)[C@H]4CC=C5[C@@H](CC(Br)C(=O)C5(C)C)[C@]4(C)CC[C@@]3(C)[C@@H]2C1 (stereo partly drawn) here?
A: Its MIC is > 50 µg/mL.

Q: What about the MIC (Fusarium tucumaniae) of the same molecule?
A: The MIC was > 50 µg/mL.

Q: What about the MIC (Fusarium solani) of the same molecule?
A: The MIC was > 50 µg/mL.

Q: Which results are given for CC(=O)O[C@H]1CC[C@@H]([C@]2(C)CC[C@@]3(C)[C@@H]4CC(C)(C)CC[C@]4(C)CC[C@]3(C)[C@H]2CC=O)C(=O)C1(C)C?
A: MIC (Fusarium graminearum): 99.8 µM; MIC (Fusarium tucumaniae): 49.9 µM; MIC (Fusarium solani): 49.9 µM

Q: CC1(C)CC[C@]2(C)CC[C@]3(C)[C@H]4CC=C5C(=CC6=NC(N)=N[C@]6(O)C5(C)C)[C@]4(C)CC[C@@]3(C)[C@@H]2C1 was tested. Which MIC (Fusarium graminearum) did it give?
A: The MIC was > 50 µg/mL.

Q: And the MIC (Fusarium tucumaniae)?
A: Its MIC is 108 µM.

Q: What about the MIC (Fusarium solani) of the same molecule?
A: The MIC was > 50 µg/mL.

Q: What does the source list for Cc1cc2c(c(C)c1O)CC[C@H]1[C@@]2(C)CC[C@@]2(C)[C@@H]3CC(C)(C)CC[C@]3(C)CC[C@]12C?
A: MIC (Fusarium graminearum): > 50 µg/mL; MIC (Fusarium tucumaniae): 118 µM; MIC (Fusarium solani): > 50 µg/mL

Q: How did the MIC (Fusarium graminearum) turn out when CC1(C)CC[C@]2(C)CC[C@]3(C)[C@H]4CC=C5C(=Cc6nc7ccccc7nc6C5(C)C)[C@]4(C)CC[C@@]3(C)[C@@H]2C1 was run?
A: The MIC was > 50 µg/mL.

Q: And the MIC (Fusarium tucumaniae)?
A: Its MIC is 98.2 µM.

Q: What about the MIC (Fusarium solani) of the same molecule?
A: Its MIC is > 50 µg/mL.

Q: Which MIC (Fusarium graminearum) does the source give for COC(=O)Nc1nc2ccccc2[nH]1 [CARBENDAZIM] here?
A: The MIC was 8.18 µM.

Q: And the MIC (Fusarium tucumaniae)?
A: The MIC was 4.09 µM.

Q: What about the MIC (Fusarium solani) of the same molecule?
A: Its MIC is 4.09 µM.

Q: For N#Cc1c[nH]cc1-c1cccc2c1OC(F)(F)O2 [FLUDIOXONIL], which MIC (Fusarium graminearum) is on record?
A: Its MIC is 17.8 µM.

Q: What about the MIC (Fusarium tucumaniae) of the same molecule?
A: The MIC was 17.8 µM.

Q: And the MIC (Fusarium solani)?
A: The MIC was 12.6 µM.

Q: For CC1(C)CC[C@]2(C)CC[C@]3(C)[C@H]4CC=C5[C@@H](CC[C@H](O)C5(C)C)[C@]4(C)CC[C@@]3(C)[C@@H]2C1 [GLUTINOL], which MIC (Fusarium graminearum) is on record?
A: Its MIC is > 50 µg/mL.

Q: And the MIC (Fusarium tucumaniae)?
A: The MIC was 117 µM.

Q: And the MIC (Fusarium solani)?
A: The MIC was > 50 µg/mL.

Q: CC1(C)CC[C@]2(C)CC[C@]3(C)[C@H]4CC=C5[C@@H](CCC(=O)C5(C)C)[C@]4(C)CC[C@@]3(C)[C@@H]2C1 [GLUTINONE] was tested. Which MIC (Fusarium graminearum) did it give?
A: The MIC was 118 µM.

Q: What about the MIC (Fusarium tucumaniae) of the same molecule?
A: Its MIC is 118 µM.

Q: And the MIC (Fusarium solani)?
A: Its MIC is > 50 µg/mL.

Q: How did the MIC (Fusarium graminearum) turn out when COC(=O)N(OC)c1ccccc1COc1ccn(-c2ccc(Cl)cc2)n1 [PYRACLOSTROBIN] was run?
A: The MIC was 1.01 µM.

Q: What about the MIC (Fusarium tucumaniae) of the same molecule?
A: The MIC was 1.01 µM.

Q: And the MIC (Fusarium solani)?
A: The MIC was 1.42 µM.
